Key:
[1] = Potency of Amphotericin after foam drying and storage
Protocol: (8) Freeze-dried samples of Amphotericin B were rehydrated with 5 ml 40 wt % sucrose per vial. Then the solutions were transferred into 50 ml sterilized glass vials for future preservation by drying. Before drying, the vials were covered with gray butyl slotted rubber stoppers. The vials were dried inside a vacuum chamber. The vials were placed on the surface of a stainless steel shelf inside the chamber. The shelf temperature was controlled by circulating ethylene glycol/water antifreeze at a controlled temperature inside the shelf. Before the vacuum was applied the shelf temperature was decreased to 5° C. The hydrostatic pressure inside the chamber was decreased to 0.5 Torr. Under such conditions the suspension boiled for 30 min. The temperature of the shelf was then slowly (during 30 min) increased to 25° C. Visually, stable dry foams were formed inside the vials under these experimental conditions within 3 hours. After an additional 12 hours of drying at room temperature, the chamber was filled with the dry N2 gas and the rubber stoppers in a portion of the vials were pushed down. The vials were removed from the chamber and subsequently sealed with aluminum crimped seal. The samples were assayed immediately after drying and after 30 days of storage at 27.5° and 40° C. The results are shown in Table 1, together with the results obtained in the next experiment.
Another set of freeze-dried samples of Amphotericin B was rehydrated with 5 ml 40 wt % sucrose per vial. The solutions were then transferred into sterilized glass vials for future preservation by drying similar to that described above with additional drying at 45° C. for additional 24 hours. After that, the chamber was filled again with the dry N2 gas, the rubber stoppers were pushed down and the vials were sealed. The samples were assayed right after drying and after 30 day of storage at 27.5° and 40° C.

[2] = Glass transition temperature of foam-dried sucrose particles; assay type: physicochemical
Protocol: (1) In the first test, the equipment set-up consisted of a 4.5 inch internal diameter glass tube connected to a standard Virtis SL600 Unitop condenser section and heated via two laboratory style hot plates from Coming. The opposite end of the glass tube was closed. A 200 ml solution of sucrose 50% (w/w) in de-ionized water was introduced to a 2 L PET beverage bottle, commonly used for soft drinks. This would be considered to be a semi-rigid container. The bottle was placed in the tube and the sucrose solution was preserved by foam formation. After mechanically stable foam was formed, the bottle containing the foam was held overnight at 0.3 Torr and 25° C. The next morning the vacuum was broken with air. Total process time was 23 hours. Immediately following tube disassembly, the bottle was removed from the tube and purged with dry nitrogen for approximately one minute. The bottle was capped with the accompanying plastic screw top. The foam appeared to completely fill the bottle. […] Next the bottle was struck against the laboratory counter about 8-10 times with light-moderate force. All of the foam inside broke apart into discreet particles with the visual and flow characteristics of sand. A small amount of material remained adhering to the bottle interior. The glass transition temperature of the coarse particulate material was 18° C.
(2) In a second test, the glass tube used in the first test was replaced with a jacketed glass tube. The jacket was filled with water and connected to a recirculating heater bath. The bottle used previously was replaced with a 1-gallon capacity polyethylene plastic storage bag, commonly available in supermarkets. This would be considered to be a flexible container. The bag was taped in place to a plastic holder to keep the bag open. The bag was filled with 150 ml of 50% (w/w) sucrose in de-ionized water. Primary foam drying was essentially completed 90 minutes later and the heating source switched to hot plates. Conditions at that point were 31° C. and 0.1 5 Torr. The foam was then held overnight. […]

[3] = Urokinase activity after foam drying and storage
Protocol: (7) Freeze-dried samples of Urokinase were rehydrated with 2 ml of 40 wt % sucrose. The solutions were then transferred to 20 ml sterilized glass vials for future preservation by drying. Before drying, the vials were covered with gray slotted rubber stoppers. The vials were dried inside a vacuum chamber. The vials were sitting on the surface of a stainless steel shelf inside the chamber. The shelf temperature was controlled by circulating ethylene glycol/water antifreeze at a controlled temperature inside the shelf. Before the vacuum was applied the shelf temperature was decreased to 5° C. Then the hydrostatic pressure inside the chamber was decreased to 0.5 Torr. Under such conditions, the suspension boiled for 30 min. […] Visually, under these experimental conditions, stable dry foams were formed inside the vials within 3 hours. After an additional 12 hours of drying at room temperature, the temperature was increased to 45° C. and maintained for an additional 24 hours. After that the chamber was filled with dry N2 gas, the rubber stoppers were pushed down and the vials were sealed with aluminum crimp seals.
The samples were assayed immediately after drying and after 30 days of storage at 40° C. After drying the Urokinase, activity was 93% of the initial activity. […]

Compound: C[C@@H]1[C@H](O)[C@@H](C)/C=C/C=C/C=C/C=C/C=C/C=C/C=C/[C@H](O[C@@H]2O[C@H](C)[C@@H](O)[C@H](N)[C@@H]2O)C[C@@H]2O[C@](O)(C[C@@H](O)C[C@@H](O)[C@H](O)CC[C@@H](O)C[C@@H](O)CC(=O)O[C@H]1C)C[C@H](O)[C@H]2C(=O)O [Amphotericin, Amphotericin B]
- Potency of Amphotericin (%) ([1]; Control): 126%
- Potency of Amphotericin (%) After 30 days at 27.5° C. ([1]; Td = 25° C.): 114%
- Potency of Amphotericin (%) After 30 days at 40° C. ([1]; Td = 25° C.): 95%
- Potency of Amphotericin (%) After drying ([1]; Td = 25° C.): 108%
- Potency of Amphotericin (%) After 30 days at 27.5° C. ([1]; Td = 45° C.): 102%
- Potency of Amphotericin (%) After 30 days at 40° C. ([1]; Td = 45° C.): 104%
- Potency of Amphotericin (%) After drying ([1]; Td = 45° C.): 103%

Compound: OC[C@H]1O[C@@](CO)(O[C@H]2O[C@H](CO)[C@@H](O)[C@H](O)[C@H]2O)[C@@H](O)[C@@H]1O [sucrose]
- glass transition temperature ([2]; 150 ml 50% (w/w) in 1-gallon polyethylene bag, 31° C., total 71 hours): 18.33 °C
- glass transition temperature ([2]; 200 ml 50% (w/w) in 2 L PET bottle, held overnight at 0.3 Torr and 25° C., total 23 hours): 18 °C
- glass transition temperature ([2]; 300 ml 50% (w/w) in larger bag, up to 55° C. and 0.2 Torr, total 23.5 hours): 33.3 °C

Compound: Urokinase
- activity, % of the initial activity ([3]; after 30 days of storage at 40° C.): 90%
- activity, % of the initial activity ([3]; after drying (40 wt % sucrose, up to 45° C.)): 93%

From patent US6692695B1, “Industrial scale barrier technology for preservation of sensitive biological materials” (Quadrant Drug Delivery Limited, priority 1999, dated 2004)
